# Where two headings read alike, the source gives them in different places.
# Assays:
# DBA/1J mice = conditions: for total average arthritis scores (histopathology): with respect to the control vehicle
# [1] = test system: peripheral blood mononuclear cells (PBMCs); test: Interferon production by cGAMP-stimulated PBMCs, STING-37 reporter
# T lymphocytes = test: Activation of T lymphocytes by CD3/CD28 beads (CD69), flow cytometry; format: cell-based, human; conditions: inhibitor 1 h at 1 and 5 μM, then CD3/CD28 beads 3 days
# [2] = test system: monocytes of healthy donors; test: Intracellular TNFα production in monocytes after TLR7/8 (R848) stimulation, flow cytometry; format: cell-based, human; conditions: for production of inflammatory cytokines: PBMCs and purified monocytes of healthy donors, Toll-like receptor 7/8 (R848); for intracellular production of inflammatory cytokines (TNFα): monocytes, inhibitor 1 h before R848 5 μg/ml (TLR7/8), 16 h
# [3] = test system: monocytes of patients suffering from juvenile idiopathic arthritis; test: Spontaneous TNFα production by monocytes of juvenile idiopathic arthritis patients, SIMOA; format: cell-based, human; conditions: monocytes incubated with inhibitor for 24 h, no stimulation
# [4] = test system: peripheral blood mononuclear cells (PBMCs) of healthy donors; test: Cytokine and interferon secretion by PBMCs after TLR7/8 (R848) stimulation, LegendPlex; format: cell-based, human; conditions: for production and secretion of pro-inflammatory cytokines, such as IL-6, IL-1p and the interferons induced by the TLR7/8 stimulation / production of TNFα induced by the TLR7/8 stimulation: human PBMCs incubated with inhibitor before R848
# [5] = test system: 1C11 neuroectodermal stem cells; test: mRNA encoding TNFα, IL6 and MCP1 in LPS-activated 1C11 stem cells, RT-qPCR; format: cell-based, Mus; conditions: inhibitor 1 h before LPS 100 ng/ml
# THP1-Dual [6] = test: Interferon response of cGAMP-stimulated THP1-Dual cells, luciferase
# [7] = test system: peripheral blood mononuclear cells (PBMCs) of healthy donors; test: Cytokine and interferon secretion by PBMCs in response to HIV, LegendPlex; format: cell-based, human; conditions: inhibitor 1 h before AT-2-inactivated HIV-1MN, 24 h
# B lymphocytes = test: Activation of B lymphocytes by CpG-A (CD69), flow cytometry; format: cell-based, human; conditions: inhibitor 1 h at 1 μM, then CpG-A 1 μg/ml (TLR9) 24 h
# THP1-Dual [8] = test: mRNA encoding TNFα, IL6 and MCP1 in LPS-activated THP1-Dual monocytes, RT-qPCR; format: cell-based, human; conditions: inhibitor 1 h before LPS 100 ng/ml
# [9] = test system: monocytes of healthy donors; test: Intracellular TNFα production in monocytes after TLR2 (LTA) stimulation, flow cytometry; format: cell-based, human; conditions: inhibitor 1 h before LTA 1 μg/ml (TLR2), 16 h
# [10] = test system: plasmacytoid dendritic cells (pDC) of healthy donors; test: Intracellular IFNα and TNFα in plasmacytoid dendritic cells in response to HIV, flow cytometry; format: cell-based, human; conditions: inhibitor 1 h before AT-2-inactivated HIV-1MN, 16 h
# [11] = test system: peripheral blood mononuclear cells (PBMCs) of healthy donors; test: Interferons secreted by R848-stimulated PBMCs, STING-37 reporter cell line; format: cell-based, human
# HEK293 = test: Interferon production by cGAMP-stimulated HEK293 non-immune cells (STING-37), luciferase; conditions: inhibitor at 1 μM, cGAMP 3 μg/ml, 24 h
# [12] = test system: peripheral blood mononuclear cells (PBMCs) of healthy donors; test: Test for toxicity of the compounds on PBMCs (CellTiter-Glo, ATP); format: cell-based, human; conditions: 24 h of cell culture
# Method: Test for toxicity of the compounds on the peripheral blood mononuclear cells (PBMCs).
# After 24 h of cell culture, the cell viability was determined using the CellTiter-Glo reagent (Promega), which evaluates the amount of ATP by luminescence using the EnSpire.
# [13] = test system: 1C11^5-HT serotonergic neurons; test: mRNA encoding TNFα, IL6 and MCP1 in LPS-activated 1C11^5-HT neurons, RT-qPCR; format: cell-based, Mus; conditions: inhibitor 1 h before LPS 100 ng/ml
# [14] = test system: monocytes of healthy donors; test: Intracellular IL-1β and TNFα in monocytes after inflammasome activation by uric acid crystals (MSU, gout model), flow cytometry; format: cell-based, human; conditions: for production of inflammatory cytokines: monocytes of healthy donors, activation of the inflammasome by uric acid crystals
# [15] = test system: monocytes of healthy donors; test: Intracellular TNFα production in monocytes after TLR4 (LPS) stimulation, flow cytometry; format: cell-based, human; conditions: for production of inflammatory cytokines: PBMCs and purified monocytes of healthy donors, Toll-like receptors 2/4 (lipoteichoic acid/LPS)
# [16] = test system: peripheral blood mononuclear cells (PBMCs) of healthy donors; test: Cytokine and interferon secretion by PBMCs after TLR4 (LPS) stimulation, LegendPlex; format: cell-based, human; conditions: inhibitor 1 h before LPS 100 ng/ml (TLR4), 24 h
# [17] = test system: neurones infected by the prions; format: cell-based
# [18] = 10 mg/kg daily oral, terminal plasma, ELISA
# [19] = cGAMP stimulation, CellTiter Glo
# [20] = monocytes, inhibitor 1 h before MSU 50 μg/ml, 16 h
compound,measurement,setting,value
"C[C@]12C=CC(=O)C=C1CC[C@@H]1[C@@H]2[C@@H](O)C[C@@]2(C)[C@H]1CC[C@]2(O)C(=O)CO [prednisolone, reference compound]",reduction in the (overall) severity of the disease at the end of the study,DBA/1J mice; 10 mg/kg daily oral,95%
same,decrease in plasma IFNγ,DBA/1J mice; [18],49%
same,decrease in plasma TNFα,DBA/1J mice; [18],54%
same,decrease in terminal plasma IL-6,DBA/1J mice; [18],70%
same,total average arthritis scores (histopathology),DBA/1J mice; 10 mg/kg daily oral,lowest
O=C(Nc1cccc(Nc2ncc(Br)c(NCCc3c[nH]cn3)n2)c1)N1CCCC1 [BX912],"concentration from which the production of interferons (IFN) induced by cGAMP is blocked, according to a dosage effect","[1]; PBMCs, inhibitor 1 h before cGAMP 3 μg/ml, 24 h",≥ 1 µM
same,viability of the PBMCs,[1]; [19],without affecting the viability
same,expression of the CD69 marker at the surface of the T lymphocytes,T lymphocytes,"inhibits, according to a dosage effect"
same,viability of the T lymphocytes,T lymphocytes,without affecting the viability
same,production of inflammatory cytokines,[2],capable of inhibiting
same,intracellular production of inflammatory cytokines (TNFα),[2],"inhibits, according to a dosage effect"
same,spontaneous production of TNFα,[3],inhibits
same,"secretion of the inflammatory cytokines (IL-6, IL-1β, TNFα, IP10, GM-CSF, IL-10) and the interferons (IFN11, IFN12/3, IFNβ, IFNg)","[4]; PBMCs, inhibitor 1 h before R848 5 μg/ml (TLR7/8), 24 h",inhibits
same,"transcription of the genes encoding TNFα, IL6 and MCP1 induced by LPS",[5],does not block
same,"concentration from which the production of interferons (IFN) induced by cGAMP is blocked, according to a dosage effect","THP1-Dual [6]; THP1-Dual, inhibitor 1 h before cGAMP 3 μg/ml, 24 h",≥ 1 µM
same,viability of the THP1-Dual,THP1-Dual [6]; [19],without affecting the viability
same,"secretion of the inflammatory cytokines (IL-6, IL-1β, TNFα, P10) and the interferons (IFNα2, IFNβ, IFN11)",[7],inhibits
same,expression of the CD69 marker at the surface of the B lymphocytes,B lymphocytes,"inhibits, according to a dosage effect"
same,viability of the B lymphocytes,B lymphocytes,without affecting the viability
same,"concentration from which the transcription of the gene encoding TNFα, IL6 and MCP1 induced by LPS is reduced, according to a dosage effect",THP1-Dual [8],≥ 0.5 µM
same,production of inflammatory cytokines (TNFα),[9],"inhibits, according to a dosage effect"
same,intracellular production of interferon IFNα,[10],inhibits
same,production of TNFα,[10],inhibits
same,secretion of interferons,"[11]; curative: inhibitor 1 h after R848 (TLR7/8) stimulation, FIG. 15C",blocking
same,secretion of interferons,"[11]; inhibitor during the R848 (TLR7/8) stimulation, FIG. 15B",blocking
same,secretion of interferons,"[11]; preventive: inhibitor 1 h before R848 (TLR7/8) stimulation, FIG. 15A",blocking
same,production of interferon induced by the STING ligand,HEK293,does not block
same,toxicity on the peripheral blood mononuclear cells (PBMCs),[12]; PBMCs infected with HIV,no toxicity
same,toxicity on the peripheral blood mononuclear cells (PBMCs),[12]; stimulation of the TLR4 receptors,no toxicity
same,toxicity on the immune cells (PBMCs),[12]; stimulation of the TLR7/8 receptors,no toxicity
same,"transcription of the genes encoding TNFα, IL6 and MCP1 induced by LPS",[13],does not block
same,production of inflammatory cytokines,[14],capable of inhibiting
same,intracellular production of IL-1β,[14]; [20],inhibits
same,production of TNFα,[14]; [20],inhibits
same,production of inflammatory cytokines,[15],capable of inhibiting
same,production of inflammatory cytokines (TNFα),"[15]; monocytes, inhibitor 1 h before LPS 100 ng/ml (TLR4), 16 h","inhibits, according to a dosage effect"
same,effect on progression and severity of the disease,DBA/1J mice; 0.5 mg/kg daily oral (group 3),no ameliorative effect
same,total average arthritis scores (histopathology),DBA/1J mice; 0.5 mg/kg daily oral (group 3),slight reductions
same,rate of progression of the disease,DBA/1J mice; 2 mg/kg daily oral (group 4),significant reduction
same,reduction in the (overall) severity of the disease at the end of the study,DBA/1J mice; 2 mg/kg daily oral (group 4),56%
same,reduction in the (overall) severity of the disease at the end of the study,DBA/1J mice; 10 mg/kg daily oral,82%
same,progression of the disease,DBA/1J mice; 10 mg/kg daily oral (group 5),stopped
same,reduction in the terminal plasma levels of IL-1i,"DBA/1J mice; 10 mg/kg daily oral (group 5), ELISA",37%
same,decrease in terminal plasma IL-6,DBA/1J mice; [18],62%
same,rate of progression of the disease and severity of the disease,"DBA/1J mice; daily oral, 0.5, 2 and 10 mg/kg",dose-dependent reduction
same,"secretion of the inflammatory cytokines (IL-6, IL-1β, TNFα, GM-CSF, IL-10) and the interferons (IFNI⅔, IFNβ, IFNg)",[16],inhibits
C[C@@H](N)[C@H]1CC[C@H](C(=O)Nc2ccncc2)CC1 [Y27632],production of inflammatory cytokines,[2],capable of inhibiting
same,intracellular production of inflammatory cytokines (TNFα),[2],"inhibits, according to a dosage effect"
same,level of TNFα in the culture medium,[17],re-establishes
same,"production and secretion of pro-inflammatory cytokines, such as IL-6, IL-1p and the interferons induced by the TLR7/8 stimulation",[4],inhibits
same,production of TNFα induced by the TLR7/8 stimulation,[4],inhibits
same,production of inflammatory cytokines,[14],capable of inhibiting
same,production of inflammatory cytokines,[15],capable of inhibiting
"Cc1cncc2cccc(S(=O)(=O)N3CCCNCC3C)c12 (centres unmarked) [formula (VIII), dimethylfasudil]",level of TNFα in the culture medium,[17],re-establishes
same,"production and secretion of pro-inflammatory cytokines, such as IL-6, IL-1p and the interferons induced by the TLR7/8 stimulation",[4],inhibits
same,production of TNFα induced by the TLR7/8 stimulation,[4],inhibits
